Here are results for seven compounds from patent publication US7919680B2, “Nucleic acids encoding anthelmintic agents and plants made therefrom” (Divergence, Inc., priority 2004, dated 2011).

Series [1] has as its system C. elegans. Kind of series: Nematicidal activity of methyl ester, salt and free fatty acid emulsions vs. C. elegans N2s (Table 3). The class given is in vivo, Caenorhabditis elegans. The text has this:
Nematicidal Activity of Single Fatty Acid Methyl Ester, Salt and Free Fatty Acid Emulsions Against Caenorhabditis elegans […] and Dauers

In a further series the test system is C. elegans dauers. Kind of series: Nematicidal activity of methyl ester, salt and free fatty acid emulsions vs. C. elegans dauers (Table 4). The class given is in vivo, Caenorhabditis elegans.
Series [2] has as its system C. elegans. As to the kind of experiment: Nematicidal activity of fatty acid methyl ester emulsions against C. elegans (Table 2).
The test system of series [3] is C. elegans. As to the kind of experiment: Rescue of delta-12 fat2 RNAi feeding phenotype by fatty acid methyl esters. Type of series: in vivo. The settings on record: for rescue of the delta-12 fat2 RNAi feeding phenotype: 3 mM added to NGM media. The text has this:
RNAi by feeding: C. elegans can be grown on lawns of E. coli genetically engineered to produce double stranded RNA (dsRNA) designed to inhibit delta-12 fat2 expression. Briefly, E. coli were transformed with a genomic fragment of a portion of the C. elegans fat2 gene sequence, specifically a fragment 651 nucleotides long, containing the entire first exon and terminating just before the conserved intron splice junction between the first exon and first intron. This construct encodes approximately the first 217 amino acids of the C. elegans delta-12 fat2 gene. The 651 nucleotide genomic fragment was cloned into an E. coli expression vector between opposing T7 polymerase promoters. The clone was then transformed into a strain of E. coli that carries an IPTG-inducible T7 polymerase. As a control, E. coli was transformed with a gene encoding the Green Fluorescent Protein (GFP). Feeding RNAi was initiated from C. elegans eggs or from C. elegans L4s. […] The sequence of the fat2 gene is of sufficiently high complexity (i.e., unique) such that the RNAi is not likely to represent cross reactivity with other genes.
The C. elegans delta-12 fatty acid desaturase (FAT-2 protein) converts the mono-unsaturated oleic acid to the di-unsaturated fatty acid linoleic acid. The delta-12 fat2 RNAi prevents expression of the delta-12 fatty acid desaturase, which is predicted to cause a decrease in levels of linoleic acid in the nematode, leading to arrested development and death.

A further series has as its system tomato seedlings. As to the kind of experiment: Phytotoxicity evaluation of fatty acid methyl esters on tomato seedlings. The class given is in vivo. The method, then: Sterilized tomato seeds were germinated in magenta jars containing Gamborg's agar media. After two weeks of growth, seedlings were treated with 250 μl of 1% fatty acid methyl ester emulsion (nonanoic acid, ricinoleic acid, ricinelaidic acid, oleic acid, or a control emulsion lacking any fatty acid), applied directly to the stem-media interface. Tomato seedlings were scored at various times after application of emulsions.

As for `CCCCC/C=C\C/C=C\CCCCCCCC(=O)O` [L free acid, linoleic acid, reference compound], the worm death in the series with C. elegans [1] (0.001% emulsion) is given as less than 5%; with C. elegans [1] (0.01% emulsion) it was less than 5%; in the series on C. elegans [1] (0.1% emulsion) it was 10%; with C. elegans dauers (0.01% emulsion) it was 40%; in the series on C. elegans dauers (0.1% emulsion), 50%.
On to `CCCCC/C=C\C/C=C\CCCCCCCC(=O)OC` [Linoleic Acid (C18-methyl ester), linoleic acid methyl ester], for which the worm death in the series with C. elegans [1] (0.001% emulsion) is less than 5%; in the series on C. elegans [1] (0.01% emulsion) it was less than 5%; with C. elegans [1] (0.1% emulsion), less than 5%; with C. elegans dauers (0.01% emulsion) it was 20%; with C. elegans dauers (0.1% emulsion), 40%. Also, the “Percentage of Worm Death 1 hr” value in the series with C. elegans [2] (0.003% emulsion) and in the series on C. elegans [2] (0.1% emulsion) was 0-5% each time. The “Percentage of Worm Death 6 hr” value in the series on C. elegans [2] (0.003% emulsion) and in the series on C. elegans [2] (0.1% emulsion) was 0-5% throughout. In addition, the “Percentage of Worm Death 24 hr” value in the series on C. elegans [2] (0.003% emulsion) and in the series on C. elegans [2] (0.1% emulsion) was 0-5% throughout. Besides, in the series with C. elegans [3], the “rescue of the delta-12 fat2 RNAi feeding phenotype” value is “partial rescue”. Also, the P0 phenotype result in the series with C. elegans [3] (fat2 RNAi feeding starting with L4 larvae, 3 mM fatty acid methyl ester in NGM media) is on record as “Reduced egg laying”.
With `CCCCCCCCC(=O)OC` [Nonanoic (C9-methyl ester), pelargonic acid methyl ester], the figures for the worm death with C. elegans [1] (0.001% emulsion), with C. elegans [1] (0.01% emulsion) and in the series on C. elegans [1] (0.1% emulsion) were 30%, 100% and 100%, respectively. Besides, the “Percentage of Worm Death 1 hr” value in the series with C. elegans [2] (0.003% emulsion) is listed as 50%; in the series with C. elegans [2] (0.1% emulsion), 100%. Further, the “Percentage of Worm Death 6 hr” value with C. elegans [2] (0.003% emulsion) was found to be 50%; with C. elegans [2] (0.1% emulsion), 100%. Moreover, the “Percentage of Worm Death 24 hr” value in the series with C. elegans [2] (0.003% emulsion) is listed as 50%; in the series on C. elegans [2] (0.1% emulsion), 100%. Moreover, the “"stun" effect” value in the series with C. elegans [2] (0.003% emulsion, many nematodes recover several hours post inoculation) is “temporarily “stunned””. The “nematicidal activity” value in the series with C. elegans [2] (concentration of 0.1%) was “strongly nematicidal”. Also, in the series on C. elegans [2] (emulsion, Table 2), the “onset of effect on nematode movement and death” value was “almost immediate cessation of nematode movement and subsequent death”. In addition, in the series with tomato seedlings (250 μl of 1% emulsion), the “time to almost entire bleaching and near total collapse” value is no more than 24 h. Moreover, the “phytotoxic effects on tomato seedlings” value in the series with tomato seedlings (250 μl of 1% emulsion at stem-media interface of two-week seedlings) is on record as “obvious phytotoxic effects”.
As for `CCCCCCCC/C=C\CCCCCCCC(=O)OC` [Oleic Acid (C18-methyl ester), oleic acid methyl ester], in the series with C. elegans [2] (0.003% emulsion), the “Percentage of Worm Death 1 hr” value is reported as 0-5%, the “Percentage of Worm Death 6 hr” value is reported as 0-5% and the “Percentage of Worm Death 24 hr” value is given as 0-5%. For the same compound, in the series with C. elegans [2] (0.1% emulsion), the “Percentage of Worm Death 1 hr” value is given as 0-5%, the “Percentage of Worm Death 6 hr” value is 0-5% and the “Percentage of Worm Death 24 hr” value is listed as 0-5%. Also, the “rescue of the delta-12 fat2 RNAi feeding phenotype” value in the series on C. elegans [3] was “does not rescue”.
On to `CCCCCC[C@@H](O)C/C=C\CCCCCCCC(=O)[O-].[K+]` [Potassium R, potassium salt of ricinoleic acid], for which the worm death in the series on C. elegans [1] (0.001% emulsion) came out at 5%; with C. elegans [1] (0.01% emulsion), 15%; with C. elegans [1] (0.1% emulsion) it was 90%; with C. elegans dauers (0.01% emulsion), 20%; in the series with C. elegans dauers (0.1% emulsion), 75%.
For the compound `CCCCCC[C@@H](O)C/C=C/CCCCCCCC(=O)O` [Re free acid*, ricinelaidic acid], the worm death is on record as 40% in the series with C. elegans [1] (0.001% emulsion); 98% in the series with C. elegans [1] (0.01% emulsion); 100% in the series with C. elegans [1] (0.1% emulsion); 75% in the series on C. elegans dauers (0.01% emulsion); 75% in the series on C. elegans dauers (0.1% emulsion).
For `CCCCCC[C@@H](O)C/C=C/CCCCCCCC(=O)[O-].[Na+]` [Sodium Re*, sodium salt of ricinelaidic acid], the worm death in the series on C. elegans [1] (0.01% emulsion) and with C. elegans [1] (0.1% emulsion) was 100% throughout.
